How the values were obtained:
[1] = test system: primary dermal fibroblasts; assay: % change in live cells vs DMSO control; higher = less cytotoxic; conditions: time (h post treatment): 48
Description: (§1)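 Cytotoxicity in uninfected 2D primary donor keratinocytes (20 h post treatment) and fibroblasts (48 h post treatment), measured with NucSpot live/dead dyes on IncuCyte. Live cells are normalised to the 0.2% DMSO control and shown as % change. Three biological replicates for each of donors 3, 4 and 5.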

primary keratinocytes = assay: as above; conditions: time (h post treatment): 20
Description: as §1

[2] = test system: HSV-1 K26-GFP infected primary human skin cells; assay: % change of HSV-1 GFP signal vs untreated infected cells; higher = less antiviral inhibition
Description: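 2D primary donor-derived keratinocytes (read at 20 hpi) and donor-matched dermal fibroblasts (read at 48 hpi) infected with GFP-HSV-1 K26 at MOI 1 and treated 1 h later with compound dilutions. IncuCyte GFP integrated intensity is normalised by subtracting mock-infected wells and dividing by untreated infected wells, shown as % change (-100 = full inhibition).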

[3] = test system: HSV-1 K26-GFP infected 3D skin equivalent; assay: % change of tdTomato fibroblast signal relative to infected DMSO control; higher = higher signal (negative = inhibition / toxicity); conditions: time (h post infection): 48
Description: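 Triplicate dose-response (0.04 to 10 uM) of 11 top compounds in 3D bioprinted skin equivalents (submerged and ALI models) infected with GFP-HSV-1 K26 at MOI 0.1 and fixed at 48 hpi. GFP (virus) and tdTomato (fibroblast viability) signals are normalised to per-plate controls.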

Nc1ccn([C@@H]2O[C@H](CO)[C@@H](O)C2(F)F)c(=O)n1 [Gemcitabine]
Conditions | % change in live cells, donor: 3 [%] | % change in live cells, donor: 4 [%] | % change in live cells, donor: 5 [%] | % change of tdTomato fibroblast signal, model: ALI [%] | % change of tdTomato fibroblast signal, model: submerged [%]
[1], 0.082305 µM | -21.3 | -9.33 | -5 | – | –
[1], 0.246914 µM | -23.7 | -9.33 | -11.3 | – | –
[1], 0.740741 µM | -27.3 | -15.7 | -21.3 | – | –
[1], 2.22222 µM | -30.3 | -11.7 | -26.3 | – | –
[1], 6.66667 µM | -33.3 | -9.67 | -34.3 | – | –
[1], 20 µM | -38 | -18 | -43.3 | – | –
[1], 60 µM | -43.7 | -19.7 | -52.7 | – | –
[3], 0.041152 µM | – | – | – | -3.97 | -1.22
[3], 0.123457 µM | – | – | – | -3.65 | -6.59
[3], 0.37037 µM | – | – | – | -3.96 | -13.9
[3], 1.111111 µM | – | – | – | -5.76 | -17.6
[3], 3.33333 µM | – | – | – | -10.9 | -22.7
[3], 10 µM | – | – | – | -5.25 | -28.4
primary keratinocytes, 0.082305 µM | -37.7 | -63 | -51.3 | – | –
primary keratinocytes, 0.246914 µM | -45.3 | -67.7 | -52.7 | – | –
primary keratinocytes, 0.740741 µM | -49.7 | -63.7 | -51.3 | – | –
primary keratinocytes, 2.22222 µM | -52.3 | -63.7 | -55.7 | – | –
primary keratinocytes, 6.66667 µM | -57.3 | -74.3 | -61 | – | –
primary keratinocytes, 20 µM | -75.7 | -76.3 | -70 | – | –
primary keratinocytes, 60 µM | -77.7 | -87.3 | -78.7 | – | –

% change of HSV-1 GFP signal [%], [2]
Conditions | 0.001 µM | 0.003 µM | 0.0091 µM | 0.0274 µM | 0.0823 µM | 0.2469 µM | 0.7407 µM | 2.2222 µM | 6.6667 µM | 20 µM
cell type: primary dermal fibroblasts, donor: 5, time (h post infection): 48 | -5.06 | -5.8 | -2.35 | -8.4 | -70.4 | -97.2 | -99.78 | -99.91 | -99.93 | -99.87
cell type: primary keratinocytes, donor: 3, time (h post infection): 20 | 29.8 | 37.4 | 36.1 | 17.1 | -25.6 | -75.6 | -97.4 | -98.37 | -99 | -99.06
cell type: primary keratinocytes, donor: 4, time (h post infection): 20 | 9.34 | 0.292 | 4.89 | -17.4 | -50.7 | -86.4 | -97.6 | -99.732 | -99.606 | -99.72
cell type: primary keratinocytes, donor: 5, time (h post infection): 20 | 6.72 | 7.7 | 7.12 | 9.71 | -23 | -73.3 | -94.7 | -99 | -99.39 | -99.6

From the supplement of paper PMC12533247
